In patent US9315458B2, “Nitrogen-containing heterocyclic compound” (Takeda Pharmaceutical Company Limited, priority 2014, dated 2016):

Biological target: T1, human M1 receptor (hCHRM1) (Homo sapiens, UniProt P11229)
T1 construct: expressed in transfected cells
T1 sequence (P11229 1-460): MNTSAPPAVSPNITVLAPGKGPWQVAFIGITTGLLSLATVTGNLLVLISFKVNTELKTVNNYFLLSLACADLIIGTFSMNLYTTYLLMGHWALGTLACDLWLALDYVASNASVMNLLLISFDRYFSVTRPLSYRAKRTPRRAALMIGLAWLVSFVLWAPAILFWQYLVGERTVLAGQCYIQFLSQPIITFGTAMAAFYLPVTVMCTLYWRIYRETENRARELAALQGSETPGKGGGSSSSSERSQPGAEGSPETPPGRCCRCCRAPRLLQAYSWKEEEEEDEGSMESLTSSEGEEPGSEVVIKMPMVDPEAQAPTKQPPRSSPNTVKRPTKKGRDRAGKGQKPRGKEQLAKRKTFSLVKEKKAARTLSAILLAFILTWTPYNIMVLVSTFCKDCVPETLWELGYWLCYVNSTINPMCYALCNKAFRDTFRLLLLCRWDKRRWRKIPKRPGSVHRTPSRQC
Test: Measurement of M1 receptor positive allosteric modulator (M1PAM) activity, calcium fluorescence (FLIPRtetra) with acetylcholine at EC20
Type: cell-based
Conditions: for activity (%) at 10 μM: 10 μM test compound, 100% = acetylcholine 1 μM, 0% = DMSO, acetylcholine at EC20; for EC50: inflection point of concentration-dependent curve, CHO-K1 cells expressing hCHRM1, acetylcholine at EC20 (final 0.6-0.8 nM), read-out: IP value
In short: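 CHO-K1 cells stably expressing hCHRM1, Fluo-4 AM loaded; compound added with acetylcholine at EC20 (final 0.6-0.8 nM), fluorescence read 1 min. Activity normalised to 1 μM acetylcholine (100%) and DMSO (0%); IP values taken as inflection point of the concentration-response curve.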

SMILES: CCc1cc2c(cc1Cc1ccc(-c3cn(C)nn3)cc1)C(=O)N([C@H]1CCC[C@@H]1O)C2 [Example 119, 5-ethyl-2-((1S,2S)-2-hydroxycyclopentyl)-6-(4-(1-methyl-1H-1,2,3-triazol-4-yl)benzyl)isoindolin-1-one]
- activity (%) at 10 μM: 91%
- EC50: 3.1 nM

SMILES: CCc1cc2c(cc1Cc1ccc(-c3ccn(C)n3)cc1)C(=O)N([C@H]1CCC[C@@H]1O)C2 [Example 120, 5-ethyl-2-((1S,2S)-2-hydroxycyclopentyl)-6-(4-(1-methyl-1H-pyrazol-3-yl)benzyl)isoindolin-1-one]
- activity (%) at 10 μM: 93%
- EC50: 25 nM

SMILES: Cc1c(Cc2ccc(-n3cccn3)cc2F)cc2c(c1C)CN(CC(C)(C)O)C2=O [Example 121, 6-(2-fluoro-4-(1H-pyrazol-1-yl)benzyl)-2-(2-hydroxy-2-methylpropyl)-4,5-dimethylisoindolin-1-one]
- activity (%) at 10 μM: 89%
- EC50: 22 nM

SMILES: CNC(=O)c1ccc(Cc2cc3c(c(C)c2C)CN([C@H]2CCC[C@@H]2O)C3=O)cc1F [Example 123, 2-fluoro-4-((2-((1S,2S)-2-hydroxycyclopentyl)-6,7-dimethyl-3-oxo-2,3-dihydro-1H-isoindol-5-yl)methyl)-N-methylbenzamide]
- activity (%) at 10 μM: 90%
- EC50: 2.1 nM

SMILES: Cc1c(Cc2ccc(C#N)cc2F)cc2c(c1C)CN([C@H]1COCC[C@@H]1O)C2=O [Example 124, 3-fluoro-4-({2-[(3S,4S)-4-hydroxytetrahydro-2H-pyran-3-yl]-6,7-dimethyl-3-oxo-2,3-dihydro-1H-isoindol-5-yl}methyl)benzonitrile]
- activity (%) at 10 μM: 86%
- EC50: 16 nM

SMILES: Cc1c(Cc2ccc(C#N)cc2F)cc2c(c1C)CN([C@H]1CCC[C@@H]1O)C2=O [Example 125, 3-fluoro-4-((2-((1S,2S)-2-hydroxycyclopentyl)-6,7-dimethyl-3-oxo-2,3-dihydro-1H-isoindol-5-yl)benzyl)benzonitrile]
- activity (%) at 10 μM: 93%
- EC50: 73 nM

SMILES: Cc1c(Cc2ccc(-n3cccn3)cc2)cc2c(c1F)CN(CC(C)(C)O)C2=O [Example 127, 4-fluoro-2-(2-hydroxy-2-methylpropyl)-5-methyl-6-(4-(1H-pyrazol-1-yl)benzyl)isoindolin-1-one]
- activity (%) at 10 μM: 104%
- EC50: 59 nM

SMILES: CCc1cc2c(cc1Cc1ccc(-n3cccn3)cc1)C(=O)N([C@H]1COCC[C@@H]1O)C2 [Example 128, 5-ethyl-2-[(3S,4S)-4-hydroxytetrahydro-2H-pyran-3-yl]-6-[4-(1H-pyrazol-1-yl)benzyl]-2,3-dihydro-1H-isoindol-1-one]
- activity (%) at 10 μM: 97%
- EC50: 5 nM

SMILES: CCc1cc2c(cc1Cc1ccc(-n3cccn3)cc1)C(=O)N(CC(C)(C)O)C2 [Example 129, 5-ethyl-2-(2-hydroxy-2-methylpropyl)-6-(4-(1H-pyrazol-1-yl)benzyl)isoindolin-1-one]
- activity (%) at 10 μM: 100%
- EC50: 53 nM

SMILES: Cc1c(Cc2ccc(-n3cccn3)cc2)cc2c(c1Cl)CN([C@H]1COCC[C@@H]1O)C2=O [Example 130, 4-chloro-2-[(3S,4S)-4-hydroxytetrahydro-2H-pyran-3-yl]-5-methyl-6-[4-(1H-pyrazol-1-yl)benzyl]-2,3-dihydro-1H-isoindol-1-one]
- activity (%) at 10 μM: 94%
- EC50: 2.2 nM

SMILES: Cc1c(Cc2ccc(-n3cccn3)cc2)cc2c(c1Cl)CN([C@H]1CCC[C@@H]1O)C2=O [Example 131, 4-chloro-2-((1S,2S)-2-hydroxycyclopentyl)-5-methyl-6-(4-(1H-pyrazol-1-yl)benzyl)isoindolin-1-one]
- activity (%) at 10 μM: 100%
- EC50: 12 nM

SMILES: Cc1c(Cc2ccc(-n3cccn3)cc2)cc2c(c1Cl)CN(CC(C)(C)O)C2=O [Example 132, 4-chloro-2-(2-hydroxy-2-methylpropyl)-5-methyl-6-(4-(1H-pyrazol-1-yl)benzyl)isoindolin-1-one]
- activity (%) at 10 μM: 87%
- EC50: 7.3 nM

SMILES: Cc1cc2c(cc1Cc1ccc(-n3cccn3)cc1)C(=O)N(C(C)C(C)(C)O)C2 (centres unmarked) [Example 133, 2-(3-hydroxy-3-methylbutan-2-yl)-5-methyl-6-(4-(1H-pyrazol-1-yl)benzyl)isoindolin-1-one]
- activity (%) at 10 μM: 87%
- EC50: 35 nM

SMILES: Cc1c(Cc2ccc(-n3cccn3)nc2)cc2c(c1C)CN(C[C@@H]1CCCO1)C2=O [Example 136, 4,5-dimethyl-6-((6-(1H-pyrazol-1-yl)pyridin-3-yl)methyl)-2-((2S)-tetrahydrofuran-2-ylmethyl)isoindolin-1-one]
- activity (%) at 10 μM: 100%
- EC50: 75 nM

SMILES: CNC(=O)c1ccc(Cc2cc3c(c(C)c2C)CN(CC(C)(C)O)C3=O)cc1F [Example 138, 2-fluoro-4-((2-(2-hydroxy-2-methylpropyl)-6,7-dimethyl-3-oxo-2,3-dihydro-1H-isoindol-5-yl)methyl)-N-methylbenzamide]
- activity (%) at 10 μM: 106%
- EC50: 25 nM

SMILES: CNC(=O)c1ccc(Cc2cc3c(c(C)c2C)CN(C[C@@H]2CCCO2)C3=O)cc1F [Example 139, 4-((6,7-dimethyl-3-oxo-2-((2S)-tetrahydrofuran-2-ylmethyl)-2,3-dihydro-1H-isoindol-5-yl)methyl)-2-fluoro-N-methylbenzamide]
- activity (%) at 10 μM: 102%
- EC50: 14 nM

SMILES: Cc1c(Cc2ccc(-c3ccn(C)n3)cc2)cc2c(c1F)CN([C@H]1COCC[C@@H]1O)C2=O [Example 140, 4-fluoro-2-[(3S,4S)-4-hydroxytetrahydro-2H-pyran-3-yl]-5-methyl-6-[4-(1-methyl-1H-pyrazol-3-yl)benzyl]-2,3-dihydro-1H-isoindol-1-one]
- activity (%) at 10 μM: 93%
- EC50: 2 nM

SMILES: COc1ccc(Cc2cc3c(c(C)c2C)CN([C@H]2CCCC[C@@H]2O)C3=O)cc1 [Example 141, 2-((1S,2S)-2-hydroxycyclohexyl)-6-(4-methoxybenzyl)-4,5-dimethylisoindolin-1-one]
- activity (%) at 10 μM: 106%
- EC50: 18 nM

SMILES: CCOc1ccc(Cc2cc3c(c(C)c2C)CN([C@H]2COCC[C@@H]2O)C3=O)cc1 [Example 142, 6-(4-ethoxybenzyl)-2-[(3S,4S)-4-hydroxytetrahydro-2H-pyran-3-yl]-4,5-dimethyl-2,3-dihydro-1H-isoinol-1-one]
- activity (%) at 10 μM: 106%
- EC50: 31 nM

SMILES: CCc1cc2c(cc1Cc1ccc(-n3cccn3)cc1F)C(=O)N([C@H]1COCC[C@@H]1O)C2 [Example 144, 5-ethyl-6-[2-fluoro-4-(1H-pyrazol-1-yl)benzyl]-2-[(3S,4S)-4-hydroxytetrahydro-2H-pyran-3-yl]-2,3-dihydro-1H-isoindol-1-one]
- activity (%) at 10 μM: 97%
- EC50: 23 nM

SMILES: CCc1cc2c(cc1Cc1ccc(OC)cc1)C(=O)N([C@H]1COCC[C@@H]1O)C2 [Example 148, 5-ethyl-2-[(3S,4S)-4-hydroxytetrahydro-2H-pyran-3-yl]-6-(4-methoxybenzyl)-2,3-dihydro-1H-isoindol-1-one]
- activity (%) at 10 μM: 89%
- EC50: 63 nM

SMILES: CCc1ccc(Cc2cc3c(c(C)c2C)CN([C@H]2CCCC[C@@H]2O)C3=O)cn1 [Example 149, 6-((6-ethylpyridin-3-yl)methyl)-2-((1S,2S)-2-hydroxycyclohexyl)-4,5-dimethylisoindolin-1-one]
- activity (%) at 10 μM: 99%
- EC50: 16 nM

SMILES: COc1ccc(Cc2cc3c(c(F)c2C)CN([C@H]2COCC[C@@H]2O)C3=O)cc1 [Example 150, 4-fluoro-2-[(3S,4S)-4-hydroxytetrahydro-2H-pyran-3-yl]-6-(4-methoxybenzyl)-5-methyl-2,3-dihydro-1H-isoindol-1-one]
- activity (%) at 10 μM: 89%
- EC50: 14 nM

SMILES: COc1ccc(Cc2cc3c(c(Cl)c2C)CN([C@H]2CCCC[C@@H]2O)C3=O)cc1 [Example 151, 4-chloro-2-((1S,2S)-2-hydroxycyclohexyl)-6-(4-methoxybenzyl)-5-methylisoindolin-1-one]
- activity (%) at 10 μM: 92%
- EC50: 16 nM

SMILES: COc1ccc(Cc2cc3c(c(Cl)c2C)CN([C@H]2CCC[C@@H]2O)C3=O)cc1 [Example 152, 4-chloro-2-((1S,2S)-2-hydroxycyclopentyl)-6-(4-methoxybenzyl)-5-methylisoindolin-1-one]
- activity (%) at 10 μM: 91%
- EC50: 47 nM

SMILES: Cc1c(Cc2ccc(-n3cccn3)cc2)cc2c(c1C)CN(c1ncccc1F)C2=O [Example 153, 2-(3-fluoropyridin-2-yl)-4,5-dimethyl-6-(4-(1H-pyrazol-1-yl)benzyl)isoindolin-1-one]
- activity (%) at 10 μM: 92%
- EC50: 57 nM

SMILES: COc1ccc(Cc2cc3c(c(F)c2C)CN([C@H]2CCCC[C@@H]2O)C3=O)cc1 [Example 154, 4-fluoro-2-((1S,2S)-2-hydroxycyclohexyl)-6-(4-methoxybenzyl)-5-methylisoindolin-1-one]
- activity (%) at 10 μM: 100%
- EC50: 22 nM

SMILES: Cc1c(Cc2ccc(C#N)cc2)cc2c(c1C)CN([C@H]1CCCC[C@@H]1O)C2=O [Example 155, 4-((2-((1S,2S)-2-hydroxycyclohexyl)-6,7-dimethyl-3-oxo-2,3-dihydro-1H-isoindol-5-yl)methyl)benzonitrile]
- activity (%) at 10 μM: 100%
- EC50: 7.1 nM
